Values joined by “and” are separate entries in the source; they are usually repeats but may differ in a detail not shown here. Identical values can stand only once.
Tests used:
Type in all cases: cell-based
[1] = target: T1, Human GPR120 short form (Homo sapiens, UniProt Q5NUL3); assay: Human GPR120 calcium flux assay, Procedure Calcium B (4200 cells/well)
T1 construct: expressed in transfected cells
T1 sequence (Q5NUL3 1-361): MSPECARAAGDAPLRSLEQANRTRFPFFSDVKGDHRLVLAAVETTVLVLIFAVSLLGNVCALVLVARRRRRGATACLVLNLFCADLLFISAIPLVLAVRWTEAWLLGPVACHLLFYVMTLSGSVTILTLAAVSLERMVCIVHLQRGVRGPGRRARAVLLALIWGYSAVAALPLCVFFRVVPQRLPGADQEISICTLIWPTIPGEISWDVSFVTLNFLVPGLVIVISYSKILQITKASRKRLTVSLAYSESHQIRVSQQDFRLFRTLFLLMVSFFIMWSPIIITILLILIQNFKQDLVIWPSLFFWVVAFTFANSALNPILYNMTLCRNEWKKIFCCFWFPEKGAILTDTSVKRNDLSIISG
How it was run: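 HEK293 cells stably expressing human GPR120 (NM_001195755.1), 4200 cells/well, starved 1 h and loaded with Fluo-4 NW plus probenecid. Ligand-evoked calcium flux read on FLIPR for 300 s after a 10 s baseline. RFU = Fmax−Fmin; EC50 from four-parameter concentration-response fit.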

[2] = target: T1, Human GPR120 short form; assay: Human GPR120 calcium flux assay, Procedure Calcium A (2500 cells/well)
How it was run: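 HEK293 cells stably expressing human GPR120 short isoform (NM_001195755.1), 2500 cells/well, serum-starved 1 h at 37 °C and loaded with Fluo-4 NW plus probenecid. FLIPR fluorescence read for 300 s after compound addition; response = Fmax−Fmin. EC50 from four-parameter concentration–response fit.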

[3] = target: T2, human GPR40 (Homo sapiens, UniProt O14842); assay: GPR40 calcium flux assay, human GPR40; conditions: HEK293 cells stably expressing GPR40; table does not say human or rat
T2 construct: expressed in transfected cells
How it was run: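 Cells preincubated 1 h at 37° C. in HBSS, 20 mM HEPES, 0.1% BSA, then Fluo 8 calcium dye 30 min at 37° C. and 15 min at room temperature.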

T2 sequence (O14842 whole entry): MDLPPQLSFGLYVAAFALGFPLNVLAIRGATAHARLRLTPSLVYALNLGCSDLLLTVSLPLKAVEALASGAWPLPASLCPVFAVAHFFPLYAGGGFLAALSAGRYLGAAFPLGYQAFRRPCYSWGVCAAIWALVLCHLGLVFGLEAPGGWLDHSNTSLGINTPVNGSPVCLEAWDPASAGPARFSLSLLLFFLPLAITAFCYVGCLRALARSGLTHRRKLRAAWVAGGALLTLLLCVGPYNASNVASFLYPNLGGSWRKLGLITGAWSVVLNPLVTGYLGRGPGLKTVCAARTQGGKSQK

Compound	EC50 [1]	EC50 [2] [nM]	EC50 [3] [nM]
Cc1ccc(C2=C(COc3ccc(CCC(=O)O)c(C)c3C)CCC2)cc1C [Compound 106, 3-(4-((2-(3,4-dimethylphenyl)cyclopent-1-en-1-yl)methoxy)-2,3-dimethylphenyl)Propanoic Acid]	567 nM	572	> 5000
Cc1c(CCC(=O)O)ccc(OCC2=C(c3cccnc3)CCC2)c1C [Compound 108, 3-[2,3-dimethyl-4-[[2-(3-pyridyl)cyclopenten-1-yl]methoxy]phenyl]Propanoic Acid]	233 nM	1050	> 5000
Cc1c(CCC(=O)O)ccc(OCC2=C(c3ccccc3Br)CCC2)c1C [Compound 111, 3-[4-[[2-(2-bromophenyl)cyclopenten-1-yl]methoxy]-2,3-dimethyl-phenyl]Propanoic Acid]	687 nM	777	> 5000
O=C(O)CCc1c(F)c(F)c(OCC2=C(c3ccc(Cl)cc3)CCC2)c(F)c1F [Compound 122, 3-[4-[[2-(4-chlorophenyl)cyclopenten-1-yl]methoxy]-2,3,5,6-tetrafluoro-phenyl]Propanoic Acid]	247 nM	453	> 5000
COc1cccc(C2=C(COc3ccc(CCC(=O)O)c(C)c3C)CCC2)c1 [Compound 141, 3-[4-[[2-(3-methoxyphenyl)cyclopenten-1-yl]methoxy]-2,3-dimethyl-phenyl]Propanoic Acid]	256 nM	1060	> 5000
Cc1c(CCC(=O)O)ccc(OCC2=C(c3ccccn3)CCC2)c1C [Compound 147, 3-[2,3-dimethyl-4-[[2-(2-pyridyl)cyclopenten-1-yl]methoxy]phenyl]Propanoic Acid]	336 nM	1010	> 5000
O=C(O)CCc1ccc(OCC2=C(c3ccc(Cl)cc3)CCC2)cc1 [Compound 153, 3-[4-[[2-(4-chlorophenyl)cyclopenten-1-yl]methoxy]phenyl]Propanoic Acid]	23 nM	319	2950
Cc1cc(CCC(=O)O)ccc1OCC1=C(c2ccc(Cl)c(F)c2)CCC1 [Compound 159, 3-(4-((2-(4-chloro-3-fluorophenyl)cyclopent-1-en-1-yl)methoxy)-3-methylphenyl)Propanoic Acid]	26 nM	44	> 5000
Cc1cc(CCC(=O)O)ccc1OCC1=C(c2ccc(Cl)cc2)CCC(F)(F)C1 [Compound 467, 3-(4-((4′-chloro-4,4-difluoro-3,4,5,6-tetrahydro-[1,1′-biphenyl]-2-yl)methoxy)-3-methylphenyl)Propanoic Acid]	40 nM	199	> 5000
Cc1c(CCC(=O)O)ccc(OCC2=C(c3ccc(Cl)cc3)CCC(F)(F)C2)c1C [Compound 468, 3-[4-[[2-(4-chlorophenyl)-5,5-difluoro-cyclohexen-1-yl]methoxy]-2,3-dimethyl-phenyl]Propanoic Acid]	56 nM and 54 nM	261	> 5000
Cc1c(CCC(=O)O)ccc(OCC2=C(c3ccc(Cl)cc3)CCCC2)c1C [Compound 474, 3-[4-[[2-(4-chlorophenyl)cyclohexen-1-yl]methoxy]-2,3-dimethyl-phenyl]Propanoic Acid]	79 nM	428	> 5000
O=C(O)CCc1c(F)c(F)c(OCC2=C(c3ccc(Cl)cc3)CCCC2)c(F)c1F [Compound 479, 3-[4-[[2-(4-chlorophenyl)cyclohexen-1-yl]methoxy]-2,3,5,6-tetrafluoro-phenyl]Propanoic Acid]	73 nM	958	> 5000
Cc1cc(CCC(=O)O)ccc1OCC1=C(c2ccc(Cl)cc2)CCCC1 [Compound 483, 3-[4-[[2-(4-chlorophenyl)cyclohexen-1-yl]methoxy]-3-methyl-phenyl]Propanoic Acid]	52 nM	255	3530
Cc1ccc(C2=C(COc3ccc(CCC(=O)O)c(C)c3C)CCCC2)cc1F [Compound 496, 3-[4-[[2-(3-fluoro-4-methyl-phenyl)cyclohexen-1-yl]methoxy]-2,3-dimethyl-phenyl]Propanoic Acid]	81 nM	297	> 5000
O=C(O)CCc1ccc(OCC2=C(c3ccc(Cl)cc3)CCC(F)(F)C2)c(F)c1F [Compound 503, 3-[4-[[2-(4-chlorophenyl)-5,5-difluoro-cyclohexen-1-yl]methoxy]-2,3-difluoro-phenyl]Propanoic Acid]	97 nM	493	> 5000

The remaining compounds from weak to strong by EC50 [2], led by results:

EC50 [1]	EC50 [2] [nM]	EC50 [3] [nM]	Compound
1430 nM	2000	> 5000	Cc1ccc(C2=C(COc3ccc(CCC(=O)O)c(C)c3C)CCC2)cc1N [Compound 134, 3-(4-((2-(3-amino-4-methylphenyl)cyclopent-1-en-1-yl)methoxy)-2,3-dimethylphenyl)Propanoic Acid]
183 nM	1630	> 5000	Cc1c(CCC(=O)O)ccc(OCC2=C(c3ncccn3)CCC2)c1C [Compound 105, 3-[2,3-dimethyl-4-[(2-pyrimidin-2-ylcyclopenten-1-yl)methoxy]phenyl]Propanoic Acid]
409 nM	1090	> 5000	Cc1ccccc1C1=C(COc2ccc(CCC(=O)O)c(C)c2C)CCC1 [Compound 132, 3-[2,3-dimethyl-4-[[2-(o-tolyl)cyclopenten-1-yl]methoxy]phenyl]Propanoic Acid]
414 nM	963	> 10000	Cc1c(CCC(=O)O)ccc(OCC2=C(c3cccc(Cl)c3)CCCC2)c1C [Compound 509, 3-[4-[[2-(3-chlorophenyl)cyclohexen-1-yl]methoxy]-2,3-dimethyl-phenyl]Propanoic Acid]
1290 nM	959	> 5000	Cc1ccc(C2=C(COc3c(F)cc(CCC(=O)O)cc3F)CCC2)cc1[N+](=O)[O-] [Compound 109, 3-(3,5-difluoro-4-((2-(4-methyl-3-nitrophenyl)cyclopent-1-en-1-yl)methoxy)phenyl)Propanoic Acid]
134 nM	781	> 5000	Cc1ccc(C2=C(COc3ccc(CCC(=O)O)cc3C)CCC2)cn1 [Compound 102, 3-(3-methyl-4-((2-(6-methylpyridin-3-yl)cyclopent-1-en-1-yl)methoxy)phenyl)Propanoic Acid]
344 nM	682	> 5000	Cc1c(CCC(=O)O)ccc(OCC2=C(c3ccc(Cl)cc3Cl)CCC2)c1C [Compound 133, 3-[4-[[2-(2,4-dichlorophenyl)cyclopenten-1-yl]methoxy]-2,3-dimethyl-phenyl]Propanoic Acid]
118 nM	533	1990	Cc1cc(OCC2=C(c3ccc(Cl)cc3)CCC2)ccc1CCC(=O)O [Compound 131, 3-[4-[[2-(4-chlorophenyl)cyclopenten-1-yl]methoxy]-2-methyl-phenyl]Propanoic Acid]
32 nM	406	> 5000	Cc1c(CCC(=O)O)ccc(OCC2=C(c3ccccc3)CCCC2)c1C [Compound 472, 3-[2,3-dimethyl-4-[(2-phenylcyclohexen-1-yl)methoxy]phenyl]Propanoic Acid]
67 nM	308	> 5000	Cc1c(CCC(=O)O)ccc(OCC2=C(c3ccccc3F)CCC2)c1C [Compound 124, 3-[4-[[2-(2-fluorophenyl)cyclopenten-1-yl]methoxy]-2,3-dimethyl-phenyl]Propanoic Acid]
133 nM	234	> 5000	Cc1c(CCC(=O)O)ccc(OCC2=C(c3ccc(Cl)nc3)CCC2)c1C [Compound 158, 3-(4-((2-(6-chloropyridin-3-yl)cyclopent-1-en-1-yl)methoxy)-2,3-dimethylphenyl)Propanoic Acid]
24 nM	128	> 10000	O=C(O)CCc1ccc(OCC2=C(c3ccc(Cl)cc3)CCC2)c(F)c1 [Compound 149, 3-[4-[[2-(4-chlorophenyl)cyclopenten-1-yl]methoxy]-3-fluoro-phenyl]Propanoic Acid]
37 nM	123	> 5000	Cc1ccc(C2=C(COc3c(F)cc(CCC(=O)O)cc3F)CCCC2)cc1F [Compound 493, 3-[3,5-difluoro-4-[[2-(3-fluoro-4-methyl-phenyl)cyclohexen-1-yl]methoxy]phenyl]Propanoic Acid]
37 nM	117	> 5000	Cc1ccc(C2=C(COc3ccc(CCC(=O)O)c(F)c3F)CCCC2)cc1F [Compound 494, 3-[2,3-difluoro-4-[[2-(3-fluoro-4-methyl-phenyl)cyclohexen-1-yl]methoxy]phenyl]Propanoic Acid]
